In patent US8603467B2 (priority 2007, dated 2013):

Assays:
[1] = test system: 8G9/HRP (binding to virus strain Ck/HK/Yu22/02)
[2] = test system: 8G9 ascites (HI activity for Ck/HKYU22/02 virus); format: biochemical

H T P C D T R D C V L R [G2]
Competition with avian influenza virus for 8G9/HRP [1]: had competition activity
HI blocking effect [2]: could clearly block
